Experimental data: patent US7563800B2, “Substituted pyrazolo[3,4-D]pyrimidines as p38 map kinase inhibitors” (Roche Palo Alto LLC, priority 2006, dated 2009)
pIC50: −log10 of the molar value.

Columns and labels:
[1] = molecular target: T1, p38 MAP kinase (Homo sapiens, UniProt Q16539); assay: p38 (MAP) kinase in vitro assay; type: biochemical; conditions: transfer of γ-phosphate from γ-33P-ATP to Myelin Basic Protein; phosphorylated recombinant p38 MAP kinase
T1 construct: made in house; host or cells: E. coli (co-expressed with SEK-1 and MEKK)
T1 sequence (Q16539 whole entry): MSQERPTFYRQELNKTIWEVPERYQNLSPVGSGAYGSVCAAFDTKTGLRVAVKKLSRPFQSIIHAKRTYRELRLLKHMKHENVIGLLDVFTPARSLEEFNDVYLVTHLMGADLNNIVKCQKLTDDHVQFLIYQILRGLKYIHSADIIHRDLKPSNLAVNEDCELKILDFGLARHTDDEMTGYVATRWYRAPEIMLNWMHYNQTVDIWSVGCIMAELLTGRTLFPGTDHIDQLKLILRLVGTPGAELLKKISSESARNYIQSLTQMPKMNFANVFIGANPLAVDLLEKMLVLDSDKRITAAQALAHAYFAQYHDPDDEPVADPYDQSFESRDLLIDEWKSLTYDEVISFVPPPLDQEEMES
Experimental: This example illustrates a p38 (MAP) kinase in vitro assay useful for evaluating the compounds of the invention.
The p38 MAP kinase inhibitory activity of compounds of this invention in vitro was determined by measuring the transfer of the γ-phosphate from γ-^33P-ATP by p-38 kinase to Myelin Basic Protein (MBP), using a minor modification of the method described in Ahn, et al., J. Biol. Chem. 266:4220-4227 (1991).
The phosphorylated form of the recombinant p38 MAP kinase was co-expressed with SEK-1 and MEKK in E. Coli (see, Khokhlatchev, et al., J. Biol. Chem. 272:11057-11062 (1997)) and then purified by affinity chromatography using a Nickel column.
The phosphorylated p38 MAP kinase was diluted in kinase buffer (20 mM 3-(N-morpholino)propanesulfonic acid, pH 7.2, 25 mM β-glycerol phosphate, 5 mM ethylene glycol-bis(beta-aminoethyl ether)-N,N,N′,N′-tetraacetic acid, 1 mM sodium ortho-vanadate, 1 mM dithiothreitol, 40 mM magnesium chloride). Test compound dissolved in DMSO or only DMSO (control) was added and the samples were incubated for 10 min at 30° C. The kinase reaction was initiated by the addition of a substrate cocktail containing MBP and γ-^33P-ATP. […] The phosphorylated MBP was then separated from the residual γ-^33P-ATP using a phosphocellulose membrane (Millipore, Bedfrod, Mass.) and quantitated using a scintillation counter (Packard, Meriden, Conn.).

**Q.** What does the source list for CC(C)Oc1n[nH]c2nc(Oc3ccc(F)cc3F)ncc12 [Compound 1, 6-(2,4-Difluoro-phenoxy)-3-isopropoxy-1H-pyrazolo[3,4-d]pyrimidine]?
**A.** melting point: 143.7 to 145 °C; pIC50 [1]: ~6.78
